Experimental data reported in patent US20080287374A1, “BREAST CANCER-RESISTANT PROTEIN INHIBITOR” (KABUSHIKI KAISHA YAKULT HONSHA, priority 2003, published 2008).
Values after ≈ are worked out from the molar mass of the structure shown.

Columns and labels:
[1] = system: A549/SN-38-4 cell line; experiment: Effect of flavonoid in overcoming anticancer drug (SN-38) resistance of A549/SN-38 cell line; format: cell-based, human; details: concentration of flavonoid for 50% reduction of relative resistance value to SN-38, A549/SN-38-4, 48 hours; for EC50: Homo sapiens
Experimental: The A549 cell line or the A549/SN-38-4 cell line was suspended in 10% FBS/Ham's F-12, and the resultant suspension was inoculated into a 96-well microplate, followed by culturing at 5% CO2 and 37° C. overnight (2×10^3 cells/50 μL/well). Thereafter, a solution of a flavonoid and SN-38 in 10% FBS/Ham's F-12 (25 μL) was added to each of the wells, followed by culturing at 5% CO2 and 37° C. for 48 hours. After completion of culturing, the number of viable cells was counted by use of TetraColor ONE according to the attached instruction manual.

[2] = system: MES-SA/Dx5 cell line; experiment: Effect of flavonoid on multidrug (paclitaxel) resistance of MES-SA/Dx5 cell line; format: cell-based, human; details: concentration of flavonoid for 50% reduction of relative resistance value to paclitaxel, MES-SA/Dx5 (P-glycoprotein overexpression), 48 hours; for EC50: Homo sapiens, read-out: Resistance overcoming effect EC50
Experimental: Human uterine cancer MES-SA cell line or MES-SA/Dx5 cell line which had acquired multidrug resistance through overexpression of P-glycoprotein (Cancer Res. 45, 4091-4096 (1985)) was suspended in 10% FBS/DMEM, and the resultant suspension was inoculated into a 96-well microplate, followed by culturing at 5% CO2 and 37° C. overnight (3×10^3 cells/50 μL/well). Thereafter, a solution of a flavonoid and paclitaxel in 10% FBS/DMEM (25 μL) was added to each of the wells, followed by culturing at 5% CO2 and 37° C. for 48 hours. After completion of culturing, the number of viable cells was counted by use of TetraColor ONE according to the attached instruction manual.

EC50 [1] [µg/mL]	EC50 [2] [µg/mL]	Resistance overcoming effect EC50 [1] [µg/mL]	Resistance overcoming effect EC50 [2] [µg/mL]	Structure (SMILES)
0.017 (≈ 0.0598 µM)	> 1	–	–	COc1cc(O)c2c(=O)cc(-c3ccc(O)cc3)oc2c1 [Compound 1-1, 5,4′-Dihydroxy-7-methoxyflavone]
0.048 (≈ 0.139 µM)	> 1	–	–	COc1cc(-c2cc(=O)c3c(O)cc(O)cc3o2)cc(OC)c1OC [Compound 1-2, 5,7-Dihydroxy-3′,4′,5′-trimethoxyflavone]
0.1 (≈ 0.393 µM)	> 1	–	–	O=c1cc(-c2ccccc2)oc2cc(O)cc(O)c12 [Compound 1-3, 5,7-Dihydroxyflavone]
0.03 (≈ 0.106 µM)	> 1	–	–	COc1ccc(-c2cc(=O)c3ccccc3o2)cc1OC [Compound 1-4, 3′,4′-Dimethoxyflavone]
0.081 (≈ 0.194 µM)	> 1	–	–	COc1cc(N)c(-c2cc(=O)c3c(OC)c(OC)c(OC)c(OC)c3o2)cc1OC [Compound 1-5, 2′-Amino-4′,5,5′,6,7,8-hexamethoxyflavone]
0.017 (≈ 0.0494 µM)	> 1	–	–	COc1ccc(-c2cc(=O)c3c(O)c(OC)c(OC)cc3o2)cc1O [Compound 1-6, 3′,5-Dihydroxy-4′,6,7-trimethoxyflavone]
0.13 (≈ 0.454 µM)	> 1	–	–	O=c1c(O)c(-c2ccc(O)cc2)oc2cc(O)cc(O)c12 [Compound 1-7, 3,4′,5,7-Tetrahydroxyflavone]
0.46 (≈ 1.61 µM)	> 1	–	–	O=c1cc(-c2ccc(O)c(O)c2)oc2cc(O)cc(O)c12 [Compound 1-8, 3′,4′,5,7-Tetrahydroxyflavone]
0.12 (≈ 0.444 µM)	> 1	–	–	O=c1cc(-c2ccc(O)cc2)oc2cc(O)cc(O)c12 [Compound 1-9, 4′,5,7-Trihydroxyflavone]
–	–	0.17	>1.0	O=c1cc(-c2ccc(O)cc2)oc2cc(OC3O[C@H](CO)[C@@H](O)[C@H](O)[C@H]3O)cc(O)c12 (some centres unmarked) [Compound 1-10, 4′,5-Dihydroxyflavone-7-glucoside]
0.074 (≈ 0.26 µM)	> 1	–	–	COc1cc2oc(-c3ccccc3)cc(=O)c2c(O)c1O [Compound 1-12, 5,6-Dihydroxy-7-methoxyflavone]
0.11 (≈ 0.307 µM)	> 1	–	–	COc1ccc(-c2cc(=O)c3c(OC)c(OC)c(OC)cc3o2)cc1O [Compound 1-13, 3′-Hydroxy-4′,5,6,7-tetramethoxyflavone]
0.098 (≈ 0.314 µM)	> 1	–	–	COc1ccc(-c2cc(=O)c3cc(OC)ccc3o2)c(OC)c1 [Compound 1-16, 2′,4′,6-Trimethoxyflavone]
0.06 (≈ 0.213 µM)	> 1	–	–	COc1ccc(-c2oc3ccccc3c(=O)c2OC)cc1 [Compound 1-17, 3,4′-Dimethoxyflavone]
0.14 (≈ 0.459 µM)	> 1	–	–	Cc1ccc(-c2cc(=O)c3cc(Cl)cc(Cl)c3o2)cc1 [Compound 1-18, 6,8-Dichloro-4′-methylflavone]
0.015 (≈ 0.0477 µM)	> 1	–	–	COc1cc2oc(-c3ccc(O)cc3)cc(=O)c2c(O)c1OC [Compound 1-19, 5,4′-Dihydroxy-6,7-dimethoxyflavone]
0.75 (≈ 1.68 µM)	> 1	–	–	COc1cc(-c2cc(=O)c3c(OC)c(OC)c(OC)c(OC)c3o2)c([N+](=O)[O-])cc1OC [Compound 1-20, 2′-Nitro-4′,5,5′,6,7,8-hexamethoxyflavone]
0.52 (≈ 1.84 µM)	> 1	–	–	COc1cccc(-c2cc(=O)c3cc(OC)ccc3o2)c1 [Compound 1-21, 3′,6-Dimethoxyflavone]
0.046 (≈ 0.134 µM)	–	–	–	COc1cc(O)c2c(=O)c(OC)c(-c3ccc(O)c(OC)c3)oc2c1 [Compound 1-22, 4′,5-Dihydroxy-3,3′,7-trimethoxyflavone]
0.007 (≈ 0.0213 µM)	–	–	–	COc1cc(O)c2c(=O)cc(-c3ccc(OC)c(OC)c3)oc2c1 [Compound 1-23, 5-Hydroxy-3′,4′,7-trimethoxyflavone]
0.054 (≈ 0.125 µM)	–	–	–	COc1ccc(-c2oc3c(OC)c(OC)c(OC)c(OC)c3c(=O)c2OC)cc1OC [Compound 1-24, 3,3′,4′,5,6,7,8-Heptamethoxyflavone]

EC50 [1] [µg/mL]	EC50 [2] [µg/mL]	Resistance overcoming effect EC50 [1] [µg/mL]	Resistance overcoming effect EC50 [2] [µg/mL]	Structure (SMILES)
0.53 (≈ 1.42 µM)	–	–	–	COc1ccc(-c2cc(=O)c3c(OC)c(OC)c(OC)cc3o2)cc1OC [Compound 1-25, 3′,4′,5,6,7-Pentamethoxyflavone]
–	–	0.14	–	COc1cc2oc(-c3ccc(OC4O[C@H](CO)[C@@H](O)[C@H](O)[C@H]4O)cc3)cc(=O)c2c(O)c1OC (some centres unmarked) [Compound 1-26, 5-Hydroxy-6,7-dimethoxyflavone-4′-glucoside]
–	–	0.042	–	COc1cc(O)c2c(=O)cc(-c3ccc(OC4O[C@H](CO)[C@@H](O)[C@H](O)[C@H]4O)cc3)oc2c1 (some centres unmarked) [Compound 1-27, 5-Hydroxy-7-methoxyflavone-4′-glucoside]
–	–	2.0	–	CC(C)=CCc1c(-c2ccc(O)cc2O)oc2c3c(cc(O)c2c1=O)OC(C)(C)C=C3 [Compound 1-28, 4H,8H-Benzo[1,2-b:3,4-b′]dipyran-4-one,2-(2,4-dihydroxyphenyl)-5-hydroxy-8,8-dimethyl-3-(3-methyl-2-butenyl)]
0.23 (≈ 0.527 µM)	–	–	–	COc1cc2oc(-c3ccc(O)cc3O)c(CC=C(C)C)c(=O)c2c(O)c1C=CC(C)C [Compound 1-29, 2′,4′,5-Trihydroxy-7-methoxy-6-(3-methyl-1-butenyl)-3-(3-methyl-2-butenyl)-flavone]
0.15 (≈ 0.496 µM)	> 1	–	–	COc1ccc(C2CC(=O)c3c(O)cc(O)cc3O2)cc1O (centres unmarked) [Compound 2-1, 3′,5,7-Trihydroxy-4′-methoxyflavanone]
0.48 (≈ 1.68 µM)	> 1	–	–	COc1cc(O)c2c(c1)OC(c1ccc(O)cc1)CC2=O (centres unmarked) [Compound 2-2, 4′,5-Dihydroxy-7-methoxyflavanone]
–	–	0.067	–	CC(C)=CCc1c2c(c(O)c3c1OC(c1ccc(O)cc1)CC3=O)C=CC(C)(C)O2 (centres unmarked) [Compound 2-3, 2H,6H-Benzo[1,2-b:5,4-b′]dipyran-6-one,7,8-dihydro-5-hydroxy-8-(4-hydroxyphenyl)-2,2-dimethyl-10-(3-methyl-2-butenyl)]
0.04 (≈ 0.133 µM)	> 1	–	–	COc1cc(O)c(C(=O)/C=C/c2ccc(O)cc2)c(OC)c1 [Compound 3-1, 2′,4-Dihydroxy-4′,6′-dimethoxychalcone]
0.23 (≈ 0.857 µM)	> 1	–	–	COc1ccc(/C=C/C(=O)c2ccccc2)cc1OC [Compound 3-2, 3,4-Dimethoxychalcone]
0.16 (≈ 0.563 µM)	> 1	–	–	COc1ccc(/C=C/C(=O)c2ccccc2O)cc1OC [Compound 3-3, 2′-Hydroxy-3,4-dimethoxychalcone]
0.023 (≈ 0.0574 µM)	> 1	–	–	CCOc1cc(O)c(C(=O)/C=C/c2ccc(OCC)c(OCC)c2)c(OCC)c1 [Compound 3-4, 2′-Hydroxy-3,4,4′,6′-tetraethoxychalcone]
0.0074 (≈ 0.0198 µM)	> 1	–	–	COc1cc(O)c(C(=O)/C=C/c2cc(OC)c(OC)cc2OC)c(OC)c1 [Compound 3-6, 2′-Hydroxy-2,4,4′,5,6′-pentamethoxychalcone]
0.65 (≈ 1.52 µM)	> 1	–	–	COc1cc(/C=C/C(=O)c2cc(Br)cc(Cl)c2O)cc(OC)c1OC [Compound 3-7, 5′-Bromo-3′-chloro-2′-hydroxy-3,4,5-trimethoxychalcone]
0.79 (≈ 2.63 µM)	> 1	–	–	COc1ccc(/C=C/C(=O)c2c(O)cc(OC)cc2O)cc1 [Compound 3-8, 2′,6′-Dihydroxy-4,4′-dimethoxychalcone]
0.94 (≈ 2.99 µM)	> 1	–	–	COc1ccc(O)c(C(=O)/C=C/c2cccc(OC)c2OC)c1 [Compound 3-9, 2′-Hydroxy-2,3,5′-trimethoxychalcone]
0.97 (≈ 2.27 µM)	> 1	–	–	COc1cc(/C=C/C(=O)c2cc(Cl)cc(Br)c2O)cc(OC)c1OC [Compound 3-10, 3′-Bromo-5′-Chloro-2′-hydroxy-3,4,5-trimethoxychalcone]
0.33 (≈ 1.16 µM)	> 1	–	–	COc1ccc(-c2coc3cc(O)cc(O)c3c2=O)cc1 [Compound 4-1, 5,7-Dihydroxy-4′-methoxyisoflavone]
–	–	0.84	>1.0	COc1ccc(-c2coc3cc(OC4O[C@H](CO)[C@@H](O)[C@H](O)[C@H]4O)cc(O)c3c2=O)cc1 (some centres unmarked) [Compound 4-2, 5-Hydroxy-4′-methoxyisoflavone-7-glucoside]
–	–	0.18	–	CC(C)=CC1Oc2cc(O)ccc2-c2oc3cc(O)c(C=CC(C)C)c(O)c3c(=O)c21 (centres unmarked) [Compound 5-1, 6H,7H-[1]benzopyrano[4,3-b][1]benzopyran-7-one,3,8,10-trihydroxy-9-(3-methyl-1-butenyl)-6-(2-methyl-1-propenyl)]

Structure (SMILES)	EC50 [1] [µg/mL]	EC50 [2] [µg/mL]	Resistance overcoming effect EC50 [1] [µg/mL]	Resistance overcoming effect EC50 [2] [µg/mL]
COc1cc(-c2oc3cc(O)cc(O)c3c(=O)c2O)ccc1O [Compound 1-11, 3,4′,5,7-Tetrahydroxy-3′-methoxyflavone]	0.16 (≈ 0.506 µM)	> 1	–	–
